For 19 molecules, TGI and GI50 results are on record in PubChem BioAssay (NCI).

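These data come from cells grown in 96-well plates and exposed to compound for 48 hours at five concentrations. GI50: concentration for 50% inhibition of growth. At the TGI there is no net growth.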

One experiment concerns PC-3 prostate. Kind of experiment: growth of human tumour cells (NCI), 48 h.
Turning to `C=CCn1c(=O)ccn(COCCO)c1=O`, the TGI was > 100 µM.

Turning to `Oc1ccccc1/C=N/c1nc2cc3sc(/N=C/c4ccccc4O)nc3cc2s1`, the TGI was > 100 µM.

`CCCCC1c2c([nH]c3ccccc23)C2C(=O)N(c3ccc(OC)cc3)C(=O)C2C1CCC` (configuration not stated) gave a TGI of 7.46 µM.

In the case of `CCOC(=N)n1c(=O)n(C2=NCCN2)c2ccccc21`, the TGI was > 100 µM.

In the next experiment the test system is MALME-3M melanoma. Kind of experiment: growth of human tumour cells (NCI), 48 h.
On to `c1ccc2c(c1)NC(C1OC3CCCN3C1C1Nc3ccccc3S1)S2` (configuration not stated), for which the TGI is > 100 µM.

For the molecule `COc1nc(C#CCC(C)O)nc(OC)n1` (configuration not stated), the TGI came to 25.6 µM.

Regarding `O=C1C[C@H](Sc2ccccc2)C2(OCCO2)[C@@H](Sc2ccccc2)C1`, the TGI amounted to 7.81 µM.

On to `CCCNC(=O)CCC(C)[C@H]1CCC2C3C(C[C@H](OC(C)=O)[C@@]21C)[C@@]1(C)CCC2(C[C@H]1C[C@H]3OC(C)=O)OOC1(CCC(C)CC1)OO2` (some centres not stated), for which the TGI is 40.3 µM.

With `CCCn1c(CN(Cc2nc3ccccc3n2CCC)Cc2nc3ccccc3n2CCC)nc2ccccc21`, the TGI came out at 23.3 µM.

The molecule `Cc1c(S(=O)(=O)/N=C(\N)Nc2ccc(Cl)cc2)sc2ccc(Cl)cc12` gave a TGI of 39.8 µM.

In the case of `CC12CC(=O)C3C(C(=O)C1)C32C` (configuration not stated), the TGI is > 100 µM.

Turning to `O=C1CN2C(c3ccccc3)=NN(c3ccc([N+](=O)[O-])cc3)C2(c2ccccc2)c2cc(Cl)ccc2N1CC1CC1` (configuration not stated), the TGI is > 100 µM.

As to `COc1ccc2nc3cc(Cl)ccc3c(NCCCNCCCNc3c4ccc(Cl)cc4nc4ccc(OC)cc34)c2c1`, the TGI stood at 1.22 µM.

For the molecule `COc1cc2c(cc1-c1c(C)noc1C)cc(C)c(=O)n2Cc1ccccn1`, the GI50 is 1.14 µM and the TGI worked out at 7.45 µM.

Regarding `N#CC(C#N)=CNC(=S)c1ccncc1`, the TGI was > 100 µM.

`CCOC(=O)c1c(-c2ccc(OC)cc2)c(C#N)c(=S)n(C2OC(COC(C)=O)C(OC(C)=O)C(OC(C)=O)C2OC(C)=O)c1C` (configuration not stated): the TGI was > 100 µM.

`O=c1cc(N=P(c2ccccc2)(c2ccccc2)c2ccccc2)n(-c2ccccc2)c(=O)n1-c1ccccc1` displayed a TGI of 33.5 µM.

On to `COc1ccc(C2(CC(C)O)SCCCS2)cc1` (configuration not stated), for which the TGI is > 100 µM.

In the case of `Cc1ccccc1C(O)(c1nccn1C)c1nccn1C`, the TGI was > 100 µM.

`C=CCn1c(=O)ccn(COCCO)c1=O`: the TGI was > 100 µM.

In the case of `Oc1ccccc1/C=N/c1nc2cc3sc(/N=C/c4ccccc4O)nc3cc2s1`, the TGI was > 100 µM.

For the molecule `CCCCC1c2c([nH]c3ccccc23)C2C(=O)N(c3ccc(OC)cc3)C(=O)C2C1CCC` (configuration not stated), the TGI came out at 9.42 µM.

`CCOC(=N)n1c(=O)n(C2=NCCN2)c2ccccc21`: the TGI is > 100 µM.

For a further experiment, the system named is 786-0 renal. Kind of experiment: growth of human tumour cells (NCI), 48 h.
`c1ccc2c(c1)NC(C1OC3CCCN3C1C1Nc3ccccc3S1)S2` (configuration not stated): the TGI was > 100 µM.

Turning to `O=C1C[C@H](Sc2ccccc2)C2(OCCO2)[C@@H](Sc2ccccc2)C1`, the TGI was > 30.2 µM.

The molecule `CCCNC(=O)CCC(C)[C@H]1CCC2C3C(C[C@H](OC(C)=O)[C@@]21C)[C@@]1(C)CCC2(C[C@H]1C[C@H]3OC(C)=O)OOC1(CCC(C)CC1)OO2` (some centres not stated) had a TGI of 33.4 µM.

Take `CCCn1c(CN(Cc2nc3ccccc3n2CCC)Cc2nc3ccccc3n2CCC)nc2ccccc21`: the TGI is > 32.3 µM.

With `Cc1c(S(=O)(=O)/N=C(\N)Nc2ccc(Cl)cc2)sc2ccc(Cl)cc12`, the TGI came out at 33.7 µM.

On to `CC12CC(=O)C3C(C(=O)C1)C32C` (configuration not stated), for which the TGI was > 100 µM.

Consider `O=C1CN2C(c3ccccc3)=NN(c3ccc([N+](=O)[O-])cc3)C2(c2ccccc2)c2cc(Cl)ccc2N1CC1CC1` (configuration not stated), for which the TGI was > 100 µM.

On to `N#CC(C#N)=CNC(=S)c1ccncc1`, for which the TGI was > 100 µM.

Regarding `CCOC(=O)c1c(-c2ccc(OC)cc2)c(C#N)c(=S)n(C2OC(COC(C)=O)C(OC(C)=O)C(OC(C)=O)C2OC(C)=O)c1C` (configuration not stated), the TGI was > 100 µM.

Regarding `O=c1cc(N=P(c2ccccc2)(c2ccccc2)c2ccccc2)n(-c2ccccc2)c(=O)n1-c1ccccc1`, the TGI worked out at 25.2 µM.

On to `COc1ccc(C2(CC(C)O)SCCCS2)cc1` (configuration not stated), for which the TGI is > 100 µM.

For `Cc1ccccc1C(O)(c1nccn1C)c1nccn1C`, the TGI is > 100 µM.

For `Oc1ccccc1/C=N/c1nc2cc3sc(/N=C/c4ccccc4O)nc3cc2s1`, the TGI was > 100 µM.

`CCCCC1c2c([nH]c3ccccc23)C2C(=O)N(c3ccc(OC)cc3)C(=O)C2C1CCC` (configuration not stated): the TGI was > 10 µM.

Take `CCOC(=N)n1c(=O)n(C2=NCCN2)c2ccccc21`: the TGI is > 100 µM.

The test system of the next experiment is HCT-15 colon. The experiment is described as follows: growth of human tumour cells (NCI), 48 h.
Regarding `c1ccc2c(c1)NC(C1OC3CCCN3C1C1Nc3ccccc3S1)S2` (configuration not stated), the TGI is > 100 µM.

Take `COc1nc(C#CCC(C)O)nc(OC)n1` (configuration not stated): the TGI is 45.6 µM.

Turning to `CCCNC(=O)CCC(C)[C@H]1CCC2C3C(C[C@H](OC(C)=O)[C@@]21C)[C@@]1(C)CCC2(C[C@H]1C[C@H]3OC(C)=O)OOC1(CCC(C)CC1)OO2` (some centres not stated), the TGI is > 100 µM.

Consider `CCCn1c(CN(Cc2nc3ccccc3n2CCC)Cc2nc3ccccc3n2CCC)nc2ccccc21`, for which the TGI was > 43.4 µM.

In turn, `Cc1c(S(=O)(=O)/N=C(\N)Nc2ccc(Cl)cc2)sc2ccc(Cl)cc12` returned a TGI of 44.6 µM.

`CC12CC(=O)C3C(C(=O)C1)C32C` (configuration not stated): the TGI is > 100 µM.

Take `O=C1CN2C(c3ccccc3)=NN(c3ccc([N+](=O)[O-])cc3)C2(c2ccccc2)c2cc(Cl)ccc2N1CC1CC1` (configuration not stated): the TGI is > 100 µM.

For the molecule `COc1ccc2nc3cc(Cl)ccc3c(NCCCNCCCNc3c4ccc(Cl)cc4nc4ccc(OC)cc34)c2c1`, the TGI turned out to be 1.06 µM.

As to `COc1cc2c(cc1-c1c(C)noc1C)cc(C)c(=O)n2Cc1ccccn1`, the GI50 is 0.694 µM and the TGI is > 100 µM.

For `N#CC(C#N)=CNC(=S)c1ccncc1`, the TGI was > 100 µM.

As to `CCOC(=O)c1c(-c2ccc(OC)cc2)c(C#N)c(=S)n(C2OC(COC(C)=O)C(OC(C)=O)C(OC(C)=O)C2OC(C)=O)c1C` (configuration not stated), the TGI is > 100 µM.

For `O=c1cc(N=P(c2ccccc2)(c2ccccc2)c2ccccc2)n(-c2ccccc2)c(=O)n1-c1ccccc1`, the TGI was > 100 µM.

With `COc1ccc(C2(CC(C)O)SCCCS2)cc1` (configuration not stated), the TGI was > 100 µM.

Turning to `Cc1ccccc1C(O)(c1nccn1C)c1nccn1C`, the TGI is > 100 µM.

As to `Oc1ccccc1/C=N/c1nc2cc3sc(/N=C/c4ccccc4O)nc3cc2s1`, the TGI was > 100 µM.

Regarding `CCCCC1c2c([nH]c3ccccc23)C2C(=O)N(c3ccc(OC)cc3)C(=O)C2C1CCC` (configuration not stated), the TGI is > 10 µM.

Take `CCOC(=N)n1c(=O)n(C2=NCCN2)c2ccccc21`: the TGI was > 100 µM.

In another experiment the test system is HT29 colon. The experiment is described as follows: growth of human tumour cells (NCI), 48 h.
As to `c1ccc2c(c1)NC(C1OC3CCCN3C1C1Nc3ccccc3S1)S2` (configuration not stated), the TGI is > 100 µM.

For `COc1nc(C#CCC(C)O)nc(OC)n1` (configuration not stated), the TGI was > 100 µM.

`O=C1C[C@H](Sc2ccccc2)C2(OCCO2)[C@@H](Sc2ccccc2)C1`: the TGI turned out to be 3.7 µM.

Take `CCCNC(=O)CCC(C)[C@H]1CCC2C3C(C[C@H](OC(C)=O)[C@@]21C)[C@@]1(C)CCC2(C[C@H]1C[C@H]3OC(C)=O)OOC1(CCC(C)CC1)OO2` (some centres not stated): the TGI is > 100 µM.

As to `CCCn1c(CN(Cc2nc3ccccc3n2CCC)Cc2nc3ccccc3n2CCC)nc2ccccc21`, the TGI is > 41.1 µM.

In the case of `Cc1c(S(=O)(=O)/N=C(\N)Nc2ccc(Cl)cc2)sc2ccc(Cl)cc12`, the TGI was found to be 38.8 µM.

Consider `CC12CC(=O)C3C(C(=O)C1)C32C` (configuration not stated), for which the TGI is > 100 µM.

Consider `O=C1CN2C(c3ccccc3)=NN(c3ccc([N+](=O)[O-])cc3)C2(c2ccccc2)c2cc(Cl)ccc2N1CC1CC1` (configuration not stated), for which the TGI is > 100 µM.

For the molecule `COc1ccc2nc3cc(Cl)ccc3c(NCCCNCCCNc3c4ccc(Cl)cc4nc4ccc(OC)cc34)c2c1`, the TGI was 0.231 µM.

Consider `COc1cc2c(cc1-c1c(C)noc1C)cc(C)c(=O)n2Cc1ccccn1`, for which the GI50 was 0.469 µM and the TGI was > 100 µM.

As to `N#CC(C#N)=CNC(=S)c1ccncc1`, the TGI was > 100 µM.

Take `CCOC(=O)c1c(-c2ccc(OC)cc2)c(C#N)c(=S)n(C2OC(COC(C)=O)C(OC(C)=O)C(OC(C)=O)C2OC(C)=O)c1C` (configuration not stated): the TGI was > 100 µM.

`O=c1cc(N=P(c2ccccc2)(c2ccccc2)c2ccccc2)n(-c2ccccc2)c(=O)n1-c1ccccc1`: the TGI is > 100 µM.

For `COc1ccc(C2(CC(C)O)SCCCS2)cc1` (configuration not stated), the TGI is > 100 µM.

`Cc1ccccc1C(O)(c1nccn1C)c1nccn1C`: the TGI is > 100 µM.

For the molecule `C=CCn1c(=O)ccn(COCCO)c1=O`, the TGI was > 100 µM.

With `Oc1ccccc1/C=N/c1nc2cc3sc(/N=C/c4ccccc4O)nc3cc2s1`, the TGI was > 100 µM.

`CCCCC1c2c([nH]c3ccccc23)C2C(=O)N(c3ccc(OC)cc3)C(=O)C2C1CCC` (configuration not stated) yielded a TGI of 8.52 µM.

On to `CCOC(=N)n1c(=O)n(C2=NCCN2)c2ccccc21`, for which the TGI is > 100 µM.

Another experiment concerns K-562 leukemia. Kind of experiment: growth of human tumour cells (NCI), 48 h.
With `c1ccc2c(c1)NC(C1OC3CCCN3C1C1Nc3ccccc3S1)S2` (configuration not stated), the TGI was > 100 µM.

Regarding `COc1nc(C#CCC(C)O)nc(OC)n1` (configuration not stated), the TGI is > 100 µM.

Turning to `O=C1C[C@H](Sc2ccccc2)C2(OCCO2)[C@@H](Sc2ccccc2)C1`, the TGI is 0.673 µM.

For `CCCNC(=O)CCC(C)[C@H]1CCC2C3C(C[C@H](OC(C)=O)[C@@]21C)[C@@]1(C)CCC2(C[C@H]1C[C@H]3OC(C)=O)OOC1(CCC(C)CC1)OO2` (some centres not stated), the TGI is > 100 µM.

As for `CCCn1c(CN(Cc2nc3ccccc3n2CCC)Cc2nc3ccccc3n2CCC)nc2ccccc21`, the TGI was 32.1 µM.

With `Cc1c(S(=O)(=O)/N=C(\N)Nc2ccc(Cl)cc2)sc2ccc(Cl)cc12`, the TGI was > 100 µM.

With `CC12CC(=O)C3C(C(=O)C1)C32C` (configuration not stated), the TGI is > 100 µM.

With `O=C1CN2C(c3ccccc3)=NN(c3ccc([N+](=O)[O-])cc3)C2(c2ccccc2)c2cc(Cl)ccc2N1CC1CC1` (configuration not stated), the TGI is > 100 µM.

As to `COc1ccc2nc3cc(Cl)ccc3c(NCCCNCCCNc3c4ccc(Cl)cc4nc4ccc(OC)cc34)c2c1`, the TGI worked out at 15.2 µM.

As to `COc1cc2c(cc1-c1c(C)noc1C)cc(C)c(=O)n2Cc1ccccn1`, the GI50 is 0.963 µM and the TGI is > 100 µM.

As for `N#CC(C#N)=CNC(=S)c1ccncc1`, the TGI is > 100 µM.

As to `CCOC(=O)c1c(-c2ccc(OC)cc2)c(C#N)c(=S)n(C2OC(COC(C)=O)C(OC(C)=O)C(OC(C)=O)C2OC(C)=O)c1C` (configuration not stated), the TGI is > 100 µM.

With `O=c1cc(N=P(c2ccccc2)(c2ccccc2)c2ccccc2)n(-c2ccccc2)c(=O)n1-c1ccccc1`, the TGI was 23.9 µM.

Take `COc1ccc(C2(CC(C)O)SCCCS2)cc1` (configuration not stated): the TGI was > 100 µM.

Regarding `Cc1ccccc1C(O)(c1nccn1C)c1nccn1C`, the TGI is > 100 µM.

With `C=CCn1c(=O)ccn(COCCO)c1=O`, the TGI is > 100 µM.

As to `Oc1ccccc1/C=N/c1nc2cc3sc(/N=C/c4ccccc4O)nc3cc2s1`, the TGI was > 100 µM.

The molecule `CCCCC1c2c([nH]c3ccccc23)C2C(=O)N(c3ccc(OC)cc3)C(=O)C2C1CCC` (configuration not stated) had a TGI of 7.43 µM.

As for `CCOC(=N)n1c(=O)n(C2=NCCN2)c2ccccc21`, the TGI is > 100 µM.
